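Assay format: 96-well plates, 48-hour exposure. At the GI50, growth is halved.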 Calls of active or inactive are those of the source. No stated cut-off is given here; in the data, active = GI50 up to about 1.1 µM and inactive = higher.
Columns and labels:
Assay in all cases: inhibition of tumour cell growth, NCI panel, 48 h
MDA-N = tested on: MDA-N
SK-MEL-2 = tested on: SK-MEL-2
RXF 393 = tested on: RXF 393
MDA-MB-435 = tested on: MDA-MB-435
OVCAR-3 = tested on: OVCAR-3
SNB-75 = tested on: SNB-75
SK-OV-3 = tested on: SK-OV-3
NCI/ADR-RES = tested on: NCI/ADR-RES
SN12C = tested on: SN12C
UACC-62 = tested on: UACC-62
ACHN = tested on: ACHN
U-251 = tested on: U-251
PC-3 = tested on: PC-3
HCT-116 = tested on: HCT-116
KM12 = tested on: KM12
HOP-92 = tested on: HOP-92
UACC-257 = tested on: UACC-257
EKVX = tested on: EKVX
NCI-H522 = tested on: NCI-H522
UO-31 = tested on: UO-31

Structure (SMILES) | GI50 (MDA-N) | GI50 (SK-MEL-2) | GI50 (RXF 393) | GI50 (MDA-MB-435) | GI50 (OVCAR-3) | GI50 (SNB-75) | GI50 (SK-OV-3) | GI50 (NCI/ADR-RES) | GI50 (SN12C) | GI50 (UACC-62) | GI50 (ACHN) | GI50 (U-251) | GI50 (PC-3) | GI50 (HCT-116) | GI50 (KM12) | GI50 (HOP-92) | GI50 (UACC-257) | GI50 (EKVX) | GI50 (NCI-H522) | GI50 (UO-31)
O=C1C(CN2CCCC2)CCCC1CN1CCCC1 (stereo not given) | 7.59 µM (inactive) | 18.5 µM (inactive) | 2.69 µM (inactive) | 2.76 µM (inactive) | 5.01 µM (inactive) | 19.7 µM (inactive) | 17.4 µM (inactive) | 6.1 µM (inactive) | 17.1 µM (inactive) | 16.9 µM (inactive) | 1.82 µM (inactive) | 19.6 µM (inactive) | 18.2 µM (inactive) | 1.8 µM (inactive) | 19.7 µM (inactive) | 0.229 µM (active) | 2.1 µM (inactive) | 3.52 µM (inactive) | 0.0495 µM (active) | 0.791 µM (active)
Clc1ccc(OCc2nnc(CCCCCCCCc3nnc(COc4ccc(Cl)cc4)n3Nc3ccccc3)n2Nc2ccccc2)cc1 | 1.6 µM (inactive) | 16.1 µM (inactive) | 21.8 µM (inactive) | 2.22 µM (inactive) | 14.2 µM (inactive) | 52.4 µM (inactive) | 17.1 µM (inactive) | 3.84 µM (inactive) | 18.2 µM (inactive) | 0.895 µM (active) | 1.16 µM (inactive) | 23.5 µM (inactive) | 1.44 µM (inactive) | 4.44 µM (inactive) | 11.2 µM (inactive) | 21.4 µM (inactive) | 7.35 µM (inactive) | 12.9 µM (inactive) | 2.82 µM (inactive) | 2.04 µM (inactive)
COc1ccc(/C=C/C(=O)c2cccc(C(=O)/C=C/c3ccc(OC)c(OC)c3)n2)cc1OC | 15.7 µM (inactive) | > 100 µM (inactive) | 40.4 µM (inactive) | > 50.9 µM (inactive) | > 54.8 µM (inactive) | > 100 µM (inactive) | > 100 µM (inactive) | 24.8 µM (inactive) | 15.5 µM (inactive) | 21.7 µM (inactive) | 25.8 µM (inactive) | 6.52 µM (inactive) | 29 µM (inactive) | 7.96 µM (inactive) | > 55.6 µM (inactive) | > 100 µM (inactive) | 39.6 µM (inactive) | > 95.9 µM (inactive) | 4.75 µM (inactive) | 16.4 µM (inactive)
C/C=C\C1OC1(C)c1cc(=O)c2c(C)cc3c(c2o1)C(=O)c1c(O)c(C2CC(C)(N(C)C)C(OC(C)=O)C(C)O2)cc(C2CC(N(C)C)C(O)C(C)O2)c1C3=O (stereo not given) | 0.0043 µM (active) | 0.00463 µM (active) | < 0.00375 µM (active) | 0.00449 µM (active) | 0.00451 µM (active) | < 0.00375 µM (active) | 0.00432 µM (active) | 0.00409 µM (active) | < 0.00375 µM (active) | < 0.00375 µM (active) | < 0.00375 µM (active) | < 0.00375 µM (active) | 0.00405 µM (active) | < 0.00375 µM (active) | 0.0042 µM (active) | 0.00593 µM (active) | 0.00984 µM (active) | 0.00836 µM (active) | < 0.00375 µM (active) | 0.00509 µM (active)
Cn1c(=O)c2c(-c3ccccc3)onc2n(C)c1=O | 50.2 µM (inactive) | 15.8 µM (inactive) | 21.3 µM (inactive) | 44.5 µM (inactive) | 12.1 µM (inactive) | 24.6 µM (inactive) | > 100 µM (inactive) | 27.5 µM (inactive) | 30.4 µM (inactive) | 21.7 µM (inactive) | 31.9 µM (inactive) | 28.1 µM (inactive) | 15 µM (inactive) | 27.4 µM (inactive) | 34 µM (inactive) | 42 µM (inactive) | 31.3 µM (inactive) | 38.4 µM (inactive) | 27.9 µM (inactive) | 19.5 µM (inactive)
CCCCSc1nsc(N(C(=O)c2ccccc2)C(=O)c2ccccc2)n1 | 30.9 µM (inactive) | 26.4 µM (inactive) | 32.3 µM (inactive) | 33.7 µM (inactive) | 23.7 µM (inactive) | 25.1 µM (inactive) | 31.4 µM (inactive) | 31.6 µM (inactive) | 29.2 µM (inactive) | 23.4 µM (inactive) | 49.1 µM (inactive) | 32.4 µM (inactive) | 33.5 µM (inactive) | 28.8 µM (inactive) | 33.5 µM (inactive) | 26.2 µM (inactive) | 27.3 µM (inactive) | 27.5 µM (inactive) | 25.4 µM (inactive) | 19.5 µM (inactive)
O=C(O)CC1NC(/C(=C/c2ccccc2O)NC(=O)c2ccccc2)OC1=O (stereo not given) | 29.4 µM (inactive) | 47.2 µM (inactive) | 29 µM (inactive) | 9.29 µM (inactive) | > 33.5 µM (inactive) | 7.21 µM (inactive) | 23 µM (inactive) | 19.5 µM (inactive) | 48.8 µM (inactive) | 25.8 µM (inactive) | 19.3 µM (inactive) | 24.7 µM (inactive) | 49 µM (inactive) | 45.9 µM (inactive) | 5.14 µM (inactive) | 28.7 µM (inactive) | > 58.5 µM (inactive) | > 33.7 µM (inactive) | 33 µM (inactive) | 33.9 µM (inactive)
Cc1ccc(C2(N3CCCC3)OC(C)(C)c3cccc4cccc2c34)cc1 (stereo not given) | 16.2 µM (inactive) | 14.7 µM (inactive) | 13.5 µM (inactive) | 14.8 µM (inactive) | 14.9 µM (inactive) | 13.5 µM (inactive) | 15.6 µM (inactive) | 15 µM (inactive) | 17.5 µM (inactive) | 13.7 µM (inactive) | 15.8 µM (inactive) | 16 µM (inactive) | 15.4 µM (inactive) | 15.6 µM (inactive) | 27.9 µM (inactive) | 1.48 µM (inactive) | 16.9 µM (inactive) | 11.4 µM (inactive) | 12.9 µM (inactive) | 15.1 µM (inactive)
O=C(/C=C/c1ccccc1)CCC1C(=O)c2ccccc2C1=O | 43.8 µM (inactive) | > 100 µM (inactive) | > 100 µM (inactive) | > 100 µM (inactive) | > 100 µM (inactive) | 19.7 µM (inactive) | > 100 µM (inactive) | > 100 µM (inactive) | > 100 µM (inactive) | > 100 µM (inactive) | > 100 µM (inactive) | > 100 µM (inactive) | > 100 µM (inactive) | > 100 µM (inactive) | > 100 µM (inactive) | > 100 µM (inactive) | > 100 µM (inactive) | > 100 µM (inactive) | > 100 µM (inactive) | > 100 µM (inactive)
CN(C)CCCNc1ccc2c(=O)n(CCN(C)C)c(=O)n3c4ccccc4c(=O)c1c23 | 0.133 µM (active) | 0.798 µM (active) | 0.783 µM (active) | 0.259 µM (active) | 0.34 µM (active) | 1.1 µM (active) | 0.582 µM (active) | 0.396 µM (active) | 0.103 µM (active) | 0.342 µM (active) | 0.0752 µM (active) | 0.234 µM (active) | 0.258 µM (active) | 0.0752 µM (active) | 0.159 µM (active) | 0.664 µM (active) | 0.396 µM (active) | 0.272 µM (active) | 0.101 µM (active) | 0.355 µM (active)
